Measurements as given in patent publication US20200368262A1, “Use of Timosaponin Enzymatically Transformed Product in Preparation of Drugs for Inhibiting Skin Superficial Fungi” (Shanghai University of Traditional Chinese Medicine, priority 2019, published 2020).
Values after ≈ are worked out from the molar mass of the structure shown.

Legend:
Assay in all cases: Trace liquid-based dilution MIC
Format in all cases: cell-based
C. albicans SC5314 = settings: Candida albicans, MIC80 (OD 630 nm reduced by 80% or more), 35° C., 24 hours, read-out: In vitro Bacteriostatic Activity (MIC) C. albicans SC5314
Excerpt: (§1) Spherical bacteria such as cryptococcus neoformans and candida albicans were taken, and activated with YEPD culture solution, and then the concentration of the bacteria solution was adjusted with RPM11640 culture solution to 1×10^3˜5 ×10^3 CFU/mL.
(§2) In the present experiment, the minimum inhibitory concentrations of the ethanol extract of rhizoma anemarrhenae and the timosaponin enzymatically transformed product against five common pathogenic fungi were detected by through a trace liquid-based dilution method recommended by the Clinical and Laboratory Standards Institute and the Chinese pharmacopoeia. Fluconazole was used as a positive control drug.
(§3) A specific experimental method is as follows: candida albicans, cryptococcus neoformans, trichophyton rubrum, trichophyton mentagrophytes, and microsporum gypseum were inoculated to a 96-well plate, respectively. The drug with different concentrations was added to the culture, wherein final concentrations of the drug were 64 mg/L, 32 mg/L, 16 mg/L, 8 mg/L, 4 mg/L, 2 mg/L, 1 mg/L, and 0.5 mg/L, respectively. Fungi treated without drug was used as positive control. The candida albicans was cultured at 35° C. for 24 hours while the cryptococcus neoformans was cultured at 35° C. for 72 hours and the trichophyton rubrum, the trichophyton mentagrophytes, and the microsporum gypseum were cultured at 30° C. for 7 days. The OD value of each well under the wavelength of 630 nm was measured using an microplate reader. The lowest drug concentration with an OD value reduced by 80% or more compared with the positive control wells was considered as MIC8o, namely the drug concentration inducing 80% inhibition against fungus growth was inhibited by 80%. When the MIC80 value of the drug was higher than the maximum concentration of 64 mg/L, “>64 mg/L” was recorded.

C. albicans Y0109 = settings: Candida albicans, MIC80 (OD 630 nm reduced by 80% or more), 35° C., 24 hours, read-out: In vitro Bacteriostatic Activity (MIC) C. albicans Y0109
Excerpt: as §1, §2, §3

[1] = test system: Cryptococcus neoformans 32609; settings: MIC80 (OD 630 nm reduced by 80% or more), 35° C., 72 hours, read-out: In vitro Bacteriostatic Activity (MIC) Cryptococcus neoformans 32609
Excerpt: as §1, §2, §3

Microsporum gypseum mzc = settings: MIC80 (OD 630 nm reduced by 80% or more), 30° C., 7 days; for MIC: Nannizzia gypsea, 168 h, read-out: In vitro Bacteriostatic Activity (MIC) Microsporum gypseum mzc
Excerpt: (§4) Trichophyton rubrum, microsporum gypseum, and trichophyton mentagrophytes were activated with a Sabouraud glucose agar culture medium, and the concentration of spores was adjusted with an RPM11640 culture solution to 1×10^35×10^3 CFU/mL.
as §2, §3

Trichophyton rubrum tia = settings: MIC80 (OD 630 nm reduced by 80% or more), 30° C., 7 days; for MIC: Trichophyton rubrum, 168 h, read-out: In vitro Bacteriostatic Activity (MIC) Trichophyton rubrum tia
Excerpt: as §4, §2, §3

[2] = test system: trichophyton mentagrophytes t5a; settings: MIC80 (OD 630 nm reduced by 80% or more), 30° C., 7 days; for MIC: Trichophyton mentagrophytes, T5A, 168 h, read-out: In vitro Bacteriostatic Activity (MIC) trichophyton mentagrophytes t5a
Excerpt: as §4, §2, §3

Compound	MIC (C. albicans SC5314) [µg/mL]	MIC (C. albicans Y0109) [µg/mL]	MIC [1] [µg/mL]	MIC (Microsporum gypseum mzc) [µg/mL]	MIC (Trichophyton rubrum tia) [µg/mL]	MIC [2] [µg/mL]	In vitro Bacteriostatic Activity (MIC) Microsporum gypseum mzc (Microsporum gypseum mzc; listed as timosaponin Alll) [µg/mL]	In vitro Bacteriostatic Activity (MIC) Trichophyton rubrum tia (Trichophyton rubrum tia; listed as timosaponin Alll) [µg/mL]	In vitro Bacteriostatic Activity (MIC) trichophyton mentagrophytes t5a ([2]; listed as timosaponin Alll) [µg/mL]
OC(Cn1cncn1)(Cn1cncn1)c1ccc(F)cc1F [fluconazole]	0.5 (≈ 1.63 µM)	1 (≈ 3.27 µM)	1 (≈ 3.27 µM)	8 (≈ 26.1 µM)	2 (≈ 6.53 µM)	32 (≈ 104 µM)	–	–	–
CC[C@@H]([C@H](C)O)n1ncn(-c2ccc(N3CCN(c4ccc(OC[C@@H]5CO[C@@](Cn6cncn6)(c6ccc(F)cc6F)C5)cc4)CC3)cc2)c1=O [posaconazole]	0.5 (≈ 0.713 µM)	1 (≈ 1.43 µM)	0.25 (≈ 0.357 µM)	0.25 (≈ 0.357 µM)	2 (≈ 2.85 µM)	0.25 (≈ 0.357 µM)	–	–	–
C[C@H]1CC[C@@]2(OC1)O[C@H]1C[C@H]3[C@@H]4CC[C@@H]5C[C@@H](O[C@@H]6O[C@H](CO)[C@H](O)[C@H](O)[C@H]6O[C@@H]6O[C@H](CO)[C@@H](O)[C@H](O)[C@H]6O)CC[C@]5(C)[C@H]4CC[C@]3(C)[C@H]1[C@@H]2C [timosaponin AIII]	4 (≈ 5.4 µM)	4 (≈ 5.4 µM)	4 (≈ 5.4 µM)	4 (≈ 5.4 µM)	4 (≈ 5.4 µM)	4 (≈ 5.4 µM)	2	2	2
